Assay results as given in paper PMC3199867, “Targeting surface nucleolin with multivalent HB-19 and related Nucant pseudopeptides results in distinct inhibitory mechanisms depending on the malignant tumor cell type” (BMC Cancer, 2011).

Experiments:
Assay type in all cases: cell-based, human
MDA-MB 435 = test: Cell growth (viable cell number); settings: N6 or N7 20 μM, viable cell number vs untreated control, mean of at least 2 independent experiments
Description: (§1) Human breast (MDA-MB-231, MDA-MB-435 [37]), prostate (LNCaP, from American Type Culture Collection, ATCC, Rockville, MD), and cervical (HeLa) epithelial cancer cells were grown in DMEM-glutamax medium (Gibco Invitrogen, Cergy-Pontoise, France) containing GlutaMAX™, 4.5 g/l glucose and supplemented with 10% heat-inactivated (56°C for 30 min) fetal bovine serum (FBS; Hyclone, Thermo Fisher Scientific, Inc). Human SW480 cells are derived from a grade 3-4 colon carcinoma, while the highly metastatic counterpart SW620 is established from the lymph node of a person. Both SW480 and SW620 cells (obtained from Francis Raul, IRCAD) are highly tumorigenic in nude mice. They were cultured in D-MEM, 10% FCS. The murine melanoma TIII cell line was obtained from Armelle Prévost-Blondel. Murine T29 lymphoma cells, obtained from Philippe Kastner (CNRS, Strasbourg), have been established from Ik^L/L tumors from mice carrying a hypomorphic mutation (Ik^L/L) in the Ikaros gene encoding a transcription factor that regulates lymphocyte differentiation, and acts also as a tumor suppressor in T lymphocytes. The T29 cells were cultured in RPMI medium containing 25 mM Hepes pH 7.6, 1 mM sodium pyruvate, and 10% FCS. Human leukemia cell lines, Jurkat (acute T cell leukemia), HuT 78 (cutaneous T lymphocyte), RAJI (Burkitt lymphoma), and HL60 (promyelocytic leukemia) were cultured in RPMI-1640 medium (Gibco) containing GlutaMAX™, and supplemented with 10% heat-inactivated FBS as described before. The wild-type Chinese hamster ovary cell line (CHO K1) was purchased from American Type Culture Collection (ATCC; Rockville, MD). The CHO LRP1-null cell line (CHO-13-5-1) was kindly provided by D. Strickland [47]. They were cultured in Ham's F12K medium. All cells were cultured with 10% (v/v) heat inactivated (56°C, 30 min) fetal bovine serum (FBS) (Roche Molecular Biochemicals, Indianapolis, IN) and 50 international units/mL penicillin-streptomycin (Invitrogen). Cell death was monitored conveniently by uptake of the trypan blue dye due to plasma membrane permeability of dying and/or dead cells.

HL60 [1] = test: Cell growth (viable cell number); settings: N6 or N7 20 μM, viable cell number vs untreated control, mean of at least 2 independent experiments
Description: as §1

HeLa = test: Cell growth (viable cell number); settings: N6 or N7 20 μM, viable cell number vs untreated control, mean of at least 2 independent experiments
Description: as §1

HuT 78 = test: Cell growth (viable cell number); settings: N6 or N7 20 μM, viable cell number vs untreated control, mean of at least 2 independent experiments
Description: as §1

LNCaP = test: Cell growth (viable cell number); settings: N6 or N7 20 μM, viable cell number vs untreated control, mean of at least 2 independent experiments
Description: as §1

RAJI = test: Cell growth (viable cell number); settings: N6 or N7 20 μM, viable cell number vs untreated control, mean of at least 2 independent experiments
Description: as §1

Jurkat = test: Cell growth (viable cell number); settings: N6 or N7 20 μM, viable cell number vs untreated control, mean of at least 2 independent experiments
Description: as §1

MDA-MB 231 = test: Cell growth (viable cell number); settings: N6 or N7 20 μM, viable cell number vs untreated control, mean of at least 2 independent experiments
Description: as §1

HL60 [2] = test: Cell death (trypan blue uptake); settings: HL60, freshly passaged, N6 or N7 20 μM, mean of at least 2 independent experiments
Description: as §1

SW480 = test: Cell death (trypan blue uptake); settings: SW480, subconfluent, N6 or N7 20 μM, mean of at least 2 independent experiments
Description: as §1

Substance | % Growth inhibition After 3 days (MDA-MB 435) | % Growth inhibition After 3 days (HL60 [1]) | % Growth inhibition After 3 days (HeLa) | % Growth inhibition After 3 days (HuT 78) | % Growth inhibition After 3 days (LNCaP) | % Growth inhibition After 3 days (RAJI) | % Growth inhibition After 3 days (Jurkat) | % Growth inhibition After 3 days (MDA-MB 231) | % Cell death After 24 hours (HL60 [2]) | % Cell death After 24 hours (SW480)
Ac-KAKPGKAKPGKAKPG-NH2 [Nucant N7, Presents hexavalently the pseudo-tripeptide Lysψ(CH2N)-Pro-Arg coupled to a similar template as in HB-19] | 58% | 65% | 46% | 62% | 88% | 75% | 80% | 92% | 35% | < 5%
Ac-Lys-Aib-Gly-Lys-Aib-Gly-Lys-Aib-Gly-Lys-Aib-Gly-Lys-Aib-Gly-Lys-Aib-Gly-CONH2 [Nucant N6, Presents hexavalently the pseudo-tripeptide Lysψ(CH2N)-Pro-Arg coupled to the polypeptide template containing Aib] | 58% | 65% | 46% | 62% | 88% | 75% | 80% | 92% | 35% | < 5%
